# Test results: US5965524A, “Analogs of viscosin and uses thereof” (Peptide Technologies Corporation, priority 1994, dated 1999)
# Like-named read-outs stand apart in the source and are kept apart here.
# Legend:
# [1] = tested on: Herpes Simplex Virus 2 (HSV-2); assay: Inhibition of HSV-2 growth in cultured cells; type: cell-based; conditions: lowest concentration at which 50% of the viruses are rendered noninfective
# Source text: Particularly preferred host cells are rabbit skin cells or Vero cells. […] Acyclovir, a known antiherpesviral agent (Douglas, R., Chapter 51 in Goodman and Gilman's the Pharmacological Basis of Therapeutics, 8th Ed., G. Gilman et al., eds., Pergamon Press, New York (1980)), was used as a positive control.
# [2] = Cell toxicity in the HSV-2 assay
# Source text: (Davis, B., Chapter 55 in Microbiology, Including Immunology and Molecular Genetics, 3rd Ed., Harper & Row, Philadelphia (1980), p. 1064). Particularly preferred host cells are rabbit skin cells or Vero cells. (Grammer, S., et al., J. Immunol. 145:2249-2253 (1990); Gao, W., et al., J. Biol. Chem. 265:20172-20178 (1990)). […] (See, e.g., Groupe, V., et al., Proc. Soc. Exptl. Biol. Med. 78:354-358 (1951); Mitsuya, H., et al., Science 226:172-174 (1984)). Acyclovir, a known antiherpesviral agent (Douglas, R., Chapter 51 in Goodman and Gilman's the Pharmacological Basis of Therapeutics, 8th Ed., G. Gilman et al., eds., Pergamon Press, New York (1980)), was used as a positive control.
# [3] = tested on: Leishmania donovani; assay: Lysis of L. donovani parasites; type: cell-based; conditions: parasites 1x10^8 per mL in HBSS; examined at 4 hr and after overnight at 27° C.
# [4] = tested on: Leishmania donovani; assay: Effect on growth of L. donovani in serum-containing and serum-free medium; type: cell-based; conditions: cell densities at 21 hr, in some cases 43 hr, 27° C.; for Lowest concentration with activity against L. Donovani: Growth: serum-containing M199 medium; for Lowest concentration with activity against L. Donovani: Growth (Serum Free Medium): serum-free REIII medium
# Method: For the purpose of determining the effect of the compounds on the growth of parasite in serum-containing and serum-free medium, the parasites were harvested from culture medium M199+5% FBS, washed twice in HBSS and resuspended in same at 1×10^8 /mL. Serum-containing M199 ans serum-free REIII media were filtered and sterilized prior to use. The washed cells were added to achieve an initial concentration of 1.66×10^6 cells/mL. Cell densities were determined by hemacytometry at 21 hr, and in some cases at 43 hr of incubation at 27° C.
Compound,HSV-2 LD50 [1] [µg/mL],Cell Toxicity ([2]; host cells of the HSV-2 assay) [µg/mL],Lowest concentration with activity against L. Donovani: Lysis [3],Cell Toxicity [2] [µg/mL],Lowest concentration with activity against L. Donovani: Growth [4],Lowest concentration with activity against L. Donovani: Growth (Serum Free Medium) [4]
"Nc1nc2c(ncn2COCCO)c(=O)[nH]1 [Acyclovir, reference compound]",0.6 to 1.5,–,–,–,–,–
"CCCCCCC[C@@H](O)CC(=O)N[C@@H](CC(C)C)C(=O)N[C@H](CCC(=O)O)C(=O)N[C@@H](C(=O)N[C@@H](C(=O)N[C@@H](CC(C)C)C(=O)N[C@H](CO)C(=O)N[C@@H](CC(C)C)C(=O)N[C@H](CO)C(=O)N[C@H](C(=O)O)[C@@H](C)CC)C(C)C)[C@@H](C)O [Compound 5, Viscosic Acid]",–,> 100,–,–,–,–
"CCCCCCC[C@@H](O)CC(=O)N[C@@H](CC(C)C)C(=O)N[C@H](CCC(=O)O)C(N)=O [Compound 7, D-3-Hydroxydecanoyl-L-Leu-D-Glu-Amide]",> 100,–,no effect,> 100,no effect,no effect
"CCCCCCC[C@@H](O)CC(=O)N[C@@H](CC(C)C)C(=O)N[C@H](CCC(=O)OCc1ccccc1)C(=O)Nc1ccc2c(c1)OCCOCCOCCOCCO2 [Compound 10, 15-[[N-[N-[D-3-Hydroxydecanoyl]-L-Leucyl]-O-(phenylmethyl)-D-glutamyl]amino]-2,3,5,6,8,9,11,12-octahydro-1,4,7,10,13-benzopentaoxacyclopentadecin]",> 100,–,30 mg/mL,> 100,100 mg/mL,100 mg/mL
"CCCCCCC[C@@H](O)CC(=O)N[C@@H](CC(C)C)C(=O)N[C@H](CCC(=O)O)C(=O)Nc1ccc2c(c1)OCCOCCOCCOCCO2 [Compound 11, 15-[[N-[N-[D-3-Hydroxydecanoyl]-L-Leucyl]-D-glutamyl]amino]-2,3,5,6,8,9,11,12-octahydro-1,4,7,10,13-benzopentaoxacyclopentadecin]",> 100,–,no effect,> 100,no effect,no effect
"CCCCCCCCCC(=O)N[C@@H](CC(C)C)C(=O)N[C@H](CCC(=O)OCc1ccccc1)C(=O)Nc1ccc2c(c1)OCCOCCOCCOCCO2 [Compound 12, 15-[[N-[N-[Decanoyl]-L-Leucyl]-O-(phenylmethyl)-D-glutamyl]amino]-2,3,5,6,8,9,11,12-octahydro-1,4,7,10,13-benzopentaoxacyclopentadecin]",> 50,–,100 mg/mL,100,no effect,no effect
"CCCCCCCCCC(=O)N[C@@H](CC(C)C)C(=O)N[C@H](CCC(=O)O)C(=O)Nc1ccc2c(c1)OCCOCCOCCOCCO2 [Compound 13, 15-[[N-[N-[Decanoyl]-L-Leucyl]-D-glutamyl]amino]-2,3,5,6,8,9,11,12-octahydro-1,4,7,10,13-benzopentaoxacyclopentadecin]",> 100,–,no effect,> 100,no effect,no effect
CCCCCCCCCCCCCCC(CCC(=O)OCc1ccccc1)C(=O)Nc1ccc2c(c1)OCCOCCOCCOCCO2 (stereo not shown) [Compound 14],> 33,–,30 mg/mL,100,100 mg/mL,10 mg/mL
CCCCCCCCCCCCCCC(CCC(=O)O)C(=O)Nc1ccc2c(c1)OCCOCCOCCOCCO2 (stereo not shown) [Compound 15],11,–,30 mg/mL,33,30 mg/mL,10 mg/mL
CC(=O)Nc1ccc2c(c1)OCCOCCOCCOCCO2 [Compound 16],> 100,–,–,> 100,–,–
"CCCCCCCCCCCCCCCCCC(=O)c1ccc2c(c1)OCCOCCOCCOCCO2 [Compound 42, Octadecanoyl benzo-15-Crown-5-ether]",> 100,–,–,> 100,–,–
Deshydroxy Viscosin [Compound 3],19 to 28,–,–,–,–,–
Octadecanoyl Viscosin [Compound 4],> 100,–,–,–,–,–
